Experimental data taken from PubChem BioAssay AID1963982 (Molecular Pharmacology Branch, DTP, NCI, 2024).

System: 313798-341-R-J2-PDC spheroids, viability
Assay: Anticancer human tumor 313798-341-R-J2-PDC patient-derived cervical squamous cell carcinoma cell line growth inhibition [PI3K]
Conditions: spheroids with HUVEC and MSC; for IC50: curve of first compound; for viability, T/C: stronger effect = lower value
How it was run: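 Agents were dosed from a top concentration near clinical Cmax (otherwise 10 microM) in half-log decrements, alone or combined with PI3K inhibitors. The spheroids contain tumor cells plus endothelial (HUVEC) and MSC stroma; viability is measured.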

[1] = second compound 0.0316 µM, first compound 0.0316 µM
[2] = second compound 0.0316 µM, first compound 0.1 µM
[3] = second compound 0.0316 µM, first compound 0.316 µM
[4] = second compound 0.0316 µM, first compound 1 µM
[5] = second compound 0.0316 µM, first compound 3.16 µM
[6] = second compound 0.0316 µM, first compound 10 µM
[7] = second compound 0.1 µM, first compound 0.0316 µM
[8] = second compound 0.1 µM, first compound 0.1 µM
[9] = second compound 0.1 µM, first compound 0.316 µM
[10] = second compound 0.1 µM, first compound 1 µM
[11] = second compound 0.1 µM, first compound 3.16 µM
[12] = second compound 0.1 µM, first compound 10 µM
[13] = second compound 0.316 µM, first compound 0.0316 µM
[14] = second compound 0.316 µM, first compound 0.1 µM
[15] = second compound 0.316 µM, first compound 0.316 µM
[16] = second compound 0.316 µM, first compound 1 µM
[17] = second compound 0.316 µM, first compound 3.16 µM
[18] = second compound 0.316 µM, first compound 10 µM
[19] = second compound 1 µM, first compound 0.0316 µM
[20] = second compound 1 µM, first compound 0.1 µM
[21] = second compound 1 µM, first compound 0.316 µM
[22] = second compound 1 µM, first compound 1 µM
[23] = second compound 1 µM, first compound 3.16 µM
[24] = second compound 1 µM, first compound 10 µM
[25] = second compound 3.16 µM, first compound 0.0316 µM
[26] = second compound 3.16 µM, first compound 0.1 µM
[27] = second compound 3.16 µM, first compound 0.316 µM
[28] = second compound 3.16 µM, first compound 1 µM
[29] = second compound 3.16 µM, first compound 3.16 µM
[30] = second compound 3.16 µM, first compound 10 µM
[31] = second compound 10 µM, first compound 0.0316 µM
[32] = second compound 10 µM, first compound 0.1 µM
[33] = second compound 10 µM, first compound 0.316 µM
[34] = second compound 10 µM, first compound 1 µM
[35] = second compound 10 µM, first compound 3.16 µM
[36] = second compound 10 µM, first compound 10 µM
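Further: spheroids exposed to compounds for seven days.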
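Wherever viability, T/C is given: 100% = DMSO vehicle control viability.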

C[C@@H](NC(=O)c1ncnc(N)c1Cl)c1ncc(C(=O)Nc2cc(C(F)(F)F)c(Cl)cn2)s1 + Cc1nc(NC(=O)N2CCCC2C(N)=O)sc1-c1ccnc(C(C)(C)C(F)(F)F)c1
IC50 (second compound 0.0316 µM): > 10 µM | IC50 (second compound 0.1 µM): > 10 µM | IC50 (second compound 0.316 µM): > 10 µM | IC50 (second compound 1 µM): > 10 µM | IC50 (second compound 3.16 µM): > 10 µM | IC50 (second compound 10 µM): < 0.0316 µM | viability, T/C [1]: 106% | viability, T/C [2]: 93.3% | viability, T/C [3]: 103% | viability, T/C [4]: 101% | viability, T/C [5]: 108% | viability, T/C [6]: 107% | viability, T/C [7]: 104% | viability, T/C [8]: 112% | viability, T/C [9]: 92.8% | viability, T/C [10]: 111% | viability, T/C [11]: 115% | viability, T/C [12]: 113% | viability, T/C [13]: 111% | viability, T/C [14]: 121% | viability, T/C [15]: 104% | viability, T/C [16]: 105% | viability, T/C [17]: 110% | viability, T/C [18]: 109% | viability, T/C [19]: 104% | viability, T/C [20]: 92% | viability, T/C [21]: 89.7% | viability, T/C [22]: 101% | viability, T/C [23]: 98.6% | viability, T/C [24]: 88% | viability, T/C [25]: 63.7% | viability, T/C [26]: 60% | viability, T/C [27]: 69.2% | viability, T/C [28]: 71.1% | viability, T/C [29]: 64.9% | viability, T/C [30]: 58.4% | viability, T/C [31]: 31.8% | viability, T/C [32]: 35.1% | viability, T/C [33]: 38.2% | viability, T/C [34]: 33.4% | viability, T/C [35]: 39.6% | viability, T/C [36]: 39.5%

C[C@@H](NC(=O)c1ncnc(N)c1Cl)c1ncc(C(=O)Nc2cc(C(F)(F)F)c(Cl)cn2)s1 + CC(Nc1ccc2c(c1)OCCn1cc(N3C(=O)OCC3C(F)F)nc1-2)C(N)=O
IC50 (second compound 0.00316 µM): 5.94 µM | IC50 (second compound 0.01 µM): 5.98 µM | IC50 (second compound 0.0316 µM): 5.9 µM | IC50 (second compound 0.1 µM): 4.72 µM | IC50 (second compound 0.316 µM): 1.91 µM | IC50 (second compound 1 µM): < 0.0316 µM | viability, T/C (second compound 0.00316 µM, first compound 0.0316 µM): 101% | viability, T/C (second compound 0.00316 µM, first compound 0.1 µM): 106% | viability, T/C (second compound 0.00316 µM, first compound 0.316 µM): 103% | viability, T/C (second compound 0.00316 µM, first compound 1 µM): 95.4% | viability, T/C (second compound 0.00316 µM, first compound 3.16 µM): 110% | viability, T/C (second compound 0.00316 µM, first compound 10 µM): 6.06% | viability, T/C (second compound 0.01 µM, first compound 0.0316 µM): 110% | viability, T/C (second compound 0.01 µM, first compound 0.1 µM): 105% | viability, T/C (second compound 0.01 µM, first compound 0.316 µM): 95.1% | viability, T/C (second compound 0.01 µM, first compound 1 µM): 105% | viability, T/C (second compound 0.01 µM, first compound 3.16 µM): 110% | viability, T/C (second compound 0.01 µM, first compound 10 µM): 5.51% | viability, T/C [1]: 99.9% | viability, T/C [2]: 103% | viability, T/C [3]: 110% | viability, T/C [4]: 114% | viability, T/C [5]: 99.6% | viability, T/C [6]: 8.08% | viability, T/C [7]: 81.9% | viability, T/C [8]: 78% | viability, T/C [9]: 91.8% | viability, T/C [10]: 92.7% | viability, T/C [11]: 73.3% | viability, T/C [12]: 6.24% | viability, T/C [13]: 55.2% | viability, T/C [14]: 54.6% | viability, T/C [15]: 61.6% | viability, T/C [16]: 66.5% | viability, T/C [17]: 42.6% | viability, T/C [18]: 9.28% | viability, T/C [19]: 51.8% | viability, T/C [20]: 41.5% | viability, T/C [21]: 53.4% | viability, T/C [22]: 45.4% | viability, T/C [23]: 29.3% | viability, T/C [24]: 14.3%

C=CC(=O)N1CCN(c2nc(=O)n(-c3c(C)ccnc3C(C)C)c3nc(-c4c(O)cccc4F)c(F)cc23)C(C)C1 (stereo unspecified) + Cc1nc(NC(=O)N2CCCC2C(N)=O)sc1-c1ccnc(C(C)(C)C(F)(F)F)c1
IC50 (second compound 0.0316 µM): > 10 µM | IC50 (second compound 0.1 µM): > 10 µM | IC50 (second compound 0.316 µM): > 10 µM | IC50 (second compound 1 µM): > 10 µM | IC50 (second compound 3.16 µM): > 10 µM | IC50 (second compound 10 µM): < 0.0316 µM | viability, T/C [1]: 99.9% | viability, T/C [2]: 101% | viability, T/C [3]: 96.5% | viability, T/C [4]: 106% | viability, T/C [5]: 99.2% | viability, T/C [6]: 96% | viability, T/C [7]: 94.4% | viability, T/C [8]: 94% | viability, T/C [9]: 114% | viability, T/C [10]: 86.3% | viability, T/C [11]: 94.3% | viability, T/C [12]: 92.8% | viability, T/C [13]: 91.2% | viability, T/C [14]: 90.2% | viability, T/C [15]: 93.1% | viability, T/C [16]: 98.8% | viability, T/C [17]: 101% | viability, T/C [18]: 101% | viability, T/C [19]: 89% | viability, T/C [20]: 89.4% | viability, T/C [21]: 88.2% | viability, T/C [22]: 97.3% | viability, T/C [23]: 96.7% | viability, T/C [24]: 89.5% | viability, T/C [25]: 67.5% | viability, T/C [26]: 56.5% | viability, T/C [27]: 51.9% | viability, T/C [28]: 67.5% | viability, T/C [29]: 67.9% | viability, T/C [30]: 58.5% | viability, T/C [31]: 35.2% | viability, T/C [32]: 32.4% | viability, T/C [33]: 35.7% | viability, T/C [34]: 32.9% | viability, T/C [35]: 37.9% | viability, T/C [36]: 34.2%
